Strand notation (5' to 3'): a small letter for the sugar, then the base; units joined by * are phosphorothioate-linked, units joined directly phosphodiester-linked; [ ] holds rarer units or linkages, { } end groups; capitals alone tell only the bases. e = 2'-O-(2-methoxyethyl) (MOE); [5mC] = 5-methylcytosine; d = 2'-deoxy (DNA)
How the values were obtained:
fibrinogen = experiment: Fibrinogen assay (Example 45); type: in vivo, cynomolgus monkeys; conditions: plasma, escalating dose regimen
Protocol: (§1) Groups, each consisting of two male and three female monkeys, were injected subcutaneously with ISIS 416838, ISIS 416850, ISIS 416858, ISIS 416864, or ISIS 417002 in escalating doses. Antisense oligonucleotide was administered to the monkeys at 5 mg/kg three times per a week for week 1; 5 mg/kg twice per week for weeks 2 and 3; 10 mg/kg three times per week for week 4; 10 mg/kg twice per week for weeks 5 and 6; 25 mg/kg three times per week for week 7; and 25 mg/kg twice per week for weeks 8, 9, 10, 11, and 12. One control group, consisting of two male and three female monkeys, was injected subcutaneously with PBS according to the same dosing regimen. An additional experimental group, consisting of two male and three female monkeys, was injected subcutaneously with ISIS 416850 in a chronic, lower dose regimen. Antisense oligonucleotide was administered to the monkeys at 5 mg/kg three times per week for week 1; 5 mg/kg twice per week for week 2 and 3; 10 mg/kg three times per week for week 4; and 10 mg/kg twice per week for weeks 5 to 12. Body weights were measured weekly. Blood samples were collected 14 days and 5 days before the start of treatment and subsequently once per week for Factor 11 protein activity analysis in plasma, fibrinogen measurement, PT and aPTT measurements, bleeding times, and measurement of various hematologic factors. On day 85, the monkeys were euthanized by exsanguination while under deep anesthesia, and organs harvested for further analysis.
Nine parts of fresh monkey plasma was collected into one part of trisodium citrate. The samples were evaluated of fibrinogen content using an ACL 9000 coagulation instrument (Instrumentation Laboratory, Italy). The ISIS oligonucleotide, ISIS 416850, given with the chronic dose regimen is distinguished from the other oligonucleotides with an asterisk (*).

[1] = Body and organ weights of cynomolgus monkeys (Example 45); type: in vivo; conditions: for body weights: escalating dose regimen;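 for Organ weights, Kidney: absolute organ weight in grams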;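 for Organ weights, Liver: absolute organ weight in grams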;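 for Organ weights, Spleen: absolute organ weight in grams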
Protocol: as §1
Body weights were taken once weekly throughout the dosing regimen. […] Organ weights were taken after the animals were euthanized and livers, kidneys and spleens were harvested and weighed. […] The ISIS oligonucleotide, ISIS 416850, given with the chronic dose regimen is distinguished from the other oligonucleotides with an asterisk (*).

[2] = Tolerability in CD1 mice: liver function, ALT, AST, bilirubin, albumin (Example 33); conditions: plasma, 50 mg/kg s.c. twice a week
Protocol: A control group of five mice was injected subcutaneously with PBS for 2 weeks. All experimental groups (i.e. ASO treated mice at 2, 4, 6 weeks) were compared to the control group (i.e. PBS, 2 weeks).
To evaluate the effect of ISIS oligonucleotides on hepatic function, plasma concentrations of transaminases were measured using an automated clinical chemistry analyzer (Hitachi Olympus AU400e, Melville, N.Y.). […] Plasma levels of bilirubin and albumin were also measured using the same clinical chemistry analyzer and expressed in mg/dL.

[3] = Tolerability in CD1 mice: hematology assays (Example 41); conditions: 50 mg/kg s.c. twice per week for 6 weeks, blood
[4] = after the animals were euthanized

ISIS 417002: MOE gapmer, nucleobases 1275 to 1318 of SEQ ID NO: 1 (Table 8) (antisense GGTGCACAGTTTCTGGCAGG; MOE gapmer, wing and gap sizes not given here)
fibrinogen levels (fibrinogen; day 8): 221 mg/dL | fibrinogen levels (fibrinogen; day 15): 195 mg/dL | fibrinogen levels (fibrinogen; day 22): 199 mg/dL | fibrinogen levels (fibrinogen; day 29): 199 mg/dL | fibrinogen levels (fibrinogen; day 36): 191 mg/dL | fibrinogen levels (fibrinogen; day 43): 187 mg/dL | fibrinogen levels (fibrinogen; day 50): 236 mg/dL | fibrinogen levels (fibrinogen; day 57): 201 mg/dL | fibrinogen levels (fibrinogen; day 64): 236 mg/dL | fibrinogen levels (fibrinogen; day 71): 228 mg/dL | fibrinogen levels (fibrinogen; day 78): 221 mg/dL | fibrinogen levels (fibrinogen; day 85): 224 mg/dL | fibrinogen levels (fibrinogen; day −5): 222 mg/dL | fibrinogen levels (fibrinogen; day −14): 291 mg/dL | Organ weights, Kidney [1, 4]: 15 g | Organ weights, Liver [1, 4]: 51 g | Organ weights, Spleen [1, 4]: 5 g | body weights ([1]; day 1): 2640 g | body weights ([1]; day 8): 2523 g | body weights ([1]; day 15): 2571 g | body weights ([1]; day 22): 2617 g | body weights ([1]; day 29): 2622 g | body weights ([1]; day 36): 2631 g | body weights ([1]; day 43): 2630 g | body weights ([1]; day 50): 2652 g | body weights ([1]; day 57): 2654 g | body weights ([1]; day 64): 2598 g | body weights ([1]; day 71): 2727 g | body weights ([1]; day 78): 2570 g | ALT ([2]; 2 weeks): 71 IU/L | AST ([2]; 2 weeks): 96 IU/L | Albumin ([2]; 2 weeks): 3.2 | Bilirubin ([2]; 2 weeks): 0.50 mg/dL | ALT ([2]; 4 weeks): 138 IU/L | AST ([2]; 4 weeks): 87 IU/L | Albumin ([2]; 4 weeks): 3.4 | Bilirubin ([2]; 4 weeks): 0.25 mg/dL | ALT ([2]; 6 weeks): 2579 IU/L | AST ([2]; 6 weeks): 1166 IU/L | Albumin ([2]; 6 weeks): 3.4 | Bilirubin ([2]; 6 weeks): 0.29 mg/dL

ISIS 445522: 5-8-5 or 6-8-6 MOE microwalk gapmer (Table 44) (antisense eG*e[5mC]*eA*e[5mC]*eA*dG*dT*dT*dT*d[5mC]*dT*dG*dG*e[5mC]*eA*eG*eG*e[5mC])
HCT [3]: 49% | Lymphocyte [3]: 3997 | Neutrophil [3]: 698 | Platelets [3]: 1005 | RBC [3]: 9.7 | WBC [3]: 5 | hemoglobin [3]: 14.6 g/dL

ISIS 445531: 5-8-5 or 6-8-6 MOE microwalk gapmer (Table 44) (antisense eG*eG*e[5mC]*eA*eT*dT*dG*dG*dT*dG*d[5mC]*dA*d[5mC]*eA*eG*eT*eT*eT)
HCT [3]: 48% | Lymphocyte [3]: 6125 | Neutrophil [3]: 2341 | Platelets [3]: 996 | RBC [3]: 9.4 | WBC [3]: 9 | hemoglobin [3]: 14.5 g/dL
